Laboratory results taken from patent US8940310B2, “Methods of treatment using TLR7 and/or TLR9 inhibitors” (Dynavax Technologies Corporation, priority 2010, dated 2015).
Marks after values point to notes of the source that are not given here. [I] = hypoxanthine (inosine)

How the values were obtained:
[1] = High dosages of IRPs in rats (weight, deaths, histology); type: in vivo, Sprague Dawley rats; conditions: for Heart: Cell Vacuolation, number of animals / Heart: Hemorrhage, number of animals / Heart: Mononuclear Cell Infiltration, number of animals / Heart: Necrosis, number of animals / Heart: No significant changes, number of animals / Liver: Liver changes, number of animals / Liver: Mixed cell infiltration, number of animals / Liver: Necrosis, number of animals / Liver: No significant changes, number of animals / Liver: Vacuolation, number of animals / Right Kidney: Hydronephrosis, number of animals / Right Kidney: Mineralization, number of animals / Right Kidney: Necrosis, number of animals / Right Kidney: No significant changes, number of animals / Right Kidney: Tubular basophilia, number of animals / Right Kidney: Tubular changes, number of animals: 6 animals
[2] = High dosages of IRPs in mice (weight, histology); type: in vivo, BALB/c mice; conditions: for Heart: Mineralization, mean severity score / Liver: Liver changes, mean severity score / Liver: Mixed cell infiltration, mean severity score / Heart: Chronic inflammation, mean severity score / Right Kidney: Tubular changes, mean severity score: 0 = no change to 4 = severe; for Liver: Liver changes, number of animals / Liver: Mixed cell infiltration, number of animals / Liver: No significan changes, number of animals / Right Kidney: No significant changes, number of animals / Right Kidney: Tubular basophilia, number of animals / Right Kidney: Tubular changes, number of animals: 6 animals; for Heart: No significant changes, number of animals: tissue missing in two animals
Summary of the method: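 BALB/c mice (n=5 per group) received IRPs or saline subcutaneously at 4, 20, 50 or 100 mg/kg on days 1, 4, 7 and 10. Body weight tracked over the study; at termination organ weights, tissue oligonucleotide levels and liver, kidney and heart histology were assessed.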

[3] = Monomer and tetramer formation of IRPs, size-exclusion HPLC; type: physicochemical; conditions: 100 mg/mL in PBS and 0.5M KCl, room temperature
Protocol: Solutions were prepared of the by mixing 100 mg/mL of the IRP sequences in PBS and 0.5M KCl and storing at room temperature for three to five weeks. The solutions were subsequently analyzed by size-exclusion HPLC.

[4] = test system: human B-cells; assay: Human B-cells cultured in the presence of IRPs, IL-6
[5] = rat, 10 mg/kg, 0 = no change to 4 = severe
[6] = rat, 90 mg/kg, 0 = no change to 4 = severe
[7] = Experiment # 1, Max Conc 4.0 uM
[8] = Experiment # 2, Max Conc 4.0 uM
[9] = Experiment # 3, Max Conc 4.0 uM
[10] = Experiment # 9, Max Conc 2.0 uM

## 5′-TGC TCC TGG AGI GGT TGT-3′ (DNA TGCTCCTGGAGNGGTTGT; DNA, [I] at 12, backbone and methylation of C not given here) [SEQ ID NO:73]
[1]; rat histology
  toxicity profile: favorable toxicity profiles
[1]; rat, 10 mg/kg
  Heart: Cell Vacuolation, number of animals: 0
  Heart: Hemorrhage, number of animals: 0
  Heart: Mononuclear Cell Infiltration, number of animals: 0
  Heart: Necrosis, number of animals: 0
  Heart: No significant changes, number of animals: 6
  Liver: Liver changes, number of animals: 0
  Liver: Mixed cell infiltration, number of animals: 6
  Liver: Necrosis, number of animals: 0
  Liver: No significant changes, number of animals: 0
  Liver: Vacuolation, number of animals: 0
  Right Kidney: Hydronephrosis, number of animals: 1
  Right Kidney: Mineralization, number of animals: 1
  Right Kidney: Necrosis, number of animals: 0
  Right Kidney: No significant changes, number of animals: 0
  Right Kidney: Tubular basophilia, number of animals: 0
  Right Kidney: Tubular changes, number of animals: 6
[1]; [5]
  Liver: Mixed cell infiltration, mean severity score: 1.8
  Right Kidney: Hydronephrosis, mean severity score: 2.0
  Right Kidney: Mineralization, mean severity score: 1.0
  Right Kidney: Tubular changes, mean severity score: 1.3
[1]; rat, 90 mg/kg
  Heart: Cell Vacuolation, number of animals: 0
  Heart: Hemorrhage, number of animals: 0
  Heart: Mononuclear Cell Infiltration, number of animals: 0
  Heart: Necrosis, number of animals: 0
  Heart: No significant changes, number of animals: 6
  Liver: Liver changes, number of animals: 6
  Liver: Mixed cell infiltration, number of animals: 2
  Liver: Necrosis, number of animals: 0
  Liver: No significant changes, number of animals: 0
  Liver: Vacuolation, number of animals: 0
  Right Kidney: Hydronephrosis, number of animals: 0
  Right Kidney: Mineralization, number of animals: 2
  Right Kidney: Necrosis, number of animals: 0
  Right Kidney: No significant changes, number of animals: 0
  Right Kidney: Tubular basophilia, number of animals: 0
  Right Kidney: Tubular changes, number of animals: 6
[1]; [6]
  Liver: Liver changes, mean severity score: 1.9
  Liver: Mixed cell infiltration, mean severity score: 2.0
  Right Kidney: Mineralization, mean severity score: 1.5
  Right Kidney: Tubular changes, mean severity score: 2.0
[2]; 50 mg/kg
  Heart: Chronic inflammation, number of animals: 0
  Heart: Mineralization, number of animals: 2
  Heart: Mineralization, mean severity score: 3.0
  Liver: Liver changes, mean severity score: 1.0
  Liver: Mixed cell infiltration, mean severity score: 1.0
  Liver: Liver changes, number of animals: 1
  Liver: Mixed cell infiltration, number of animals: 2
  Liver: No significan changes, number of animals: 3
  Right Kidney: No significant changes, number of animals: 6
  Right Kidney: Tubular basophilia, number of animals: 0
  Right Kidney: Tubular changes, number of animals: 0
  Heart: No significant changes, number of animals: 2**
[2]; 100 mg/kg
  Heart: Chronic inflammation, number of animals: 1
  Heart: Mineralization, number of animals: 1
  Heart: Chronic inflammation, mean severity score: 2.0
  Heart: Mineralization, mean severity score: 3.0
  Liver: Liver changes, mean severity score: 1.0
  Liver: Mixed cell infiltration, mean severity score: 1.0
  Right Kidney: Tubular changes, mean severity score: 1.0
  Liver: Liver changes, number of animals: 5
  Liver: Mixed cell infiltration, number of animals: 1
  Liver: No significan changes, number of animals: 1
  Right Kidney: No significant changes, number of animals: 0
  Right Kidney: Tubular basophilia, number of animals: 0
  Right Kidney: Tubular changes, number of animals: 6
  Heart: No significant changes, number of animals: 2**
[3]; five weeks
  fraction in monomer form: 100%
[4]; [7]
  Normalized IL-6 Response (Percentage of Positive Control): 11%
[4]; [8]
  Normalized IL-6 Response (Percentage of Positive Control): 13%
[4]; [9]
  Normalized IL-6 Response (Percentage of Positive Control): 6%
[4]; [10]
  Normalized IL-6 Response (Percentage of Positive Control): 11%
[4]; FIG. 1C, percent IL-6 from CpG-ISS
  B-cell stimulatory activity: low B-cell stimulatory activity

## 5′-TGCTCCTGGAGGGGTTGT-3′ (DNA, backbone not given here) [SEQ ID NO:42]
[1]; rat, 10 mg/kg or 100 mg/kg SC days 0, 3, 6, 9
  organ weight of the liver, heart, kidney, or spleen: no significant difference
[1]; rat, 10 mg/kg
  Heart: Cell Vacuolation, number of animals: 0
  Heart: Hemorrhage, number of animals: 0
  Heart: Mononuclear Cell Infiltration, number of animals: 1
  Heart: Necrosis, number of animals: 0
  Heart: No significant changes, number of animals: 5
  Liver: Liver changes, number of animals: 1
  Liver: Mixed cell infiltration, number of animals: 2
  Liver: Necrosis, number of animals: 0
  Liver: No significant changes, number of animals: 3
  Liver: Vacuolation, number of animals: 0
  Right Kidney: Hydronephrosis, number of animals: 0
  Right Kidney: Mineralization, number of animals: 3
  Right Kidney: Necrosis, number of animals: 0
  Right Kidney: No significant changes, number of animals: 0
  Right Kidney: Tubular basophilia, number of animals: 0
  Right Kidney: Tubular changes, number of animals: 6
[1]; [5]
  Heart: Mononuclear Cell Infiltration, mean severity score: 2.0
  Liver: Liver changes, mean severity score: 1.0
  Liver: Mixed cell infiltration, mean severity score: 1.5
  Right Kidney: Mineralization, mean severity score: 2.0
  Right Kidney: Tubular changes, mean severity score: 1.0
[1]; rat, 90 mg/kg
  Kidney: tubular basophilia: occurred
  Liver: hepatocellular necrosis: hepatocellular necrosis
  Heart: Cell Vacuolation, number of animals: 0
  Heart: Hemorrhage, number of animals: 0
  Heart: Mononuclear Cell Infiltration, number of animals: 0
  Heart: Necrosis, number of animals: 0
  Heart: No significant changes, number of animals: 6
  Liver: Liver changes, number of animals: 6
  Liver: Mixed cell infiltration, number of animals: 4
  Liver: Necrosis, number of animals: 1
  Liver: No significant changes, number of animals: 0
  Liver: Vacuolation, number of animals: 0
  Right Kidney: Hydronephrosis, number of animals: 0
  Right Kidney: Mineralization, number of animals: 1
  Right Kidney: Necrosis, number of animals: 0
  Right Kidney: No significant changes, number of animals: 0
  Right Kidney: Tubular basophilia, number of animals: 4
  Right Kidney: Tubular changes, number of animals: 6
[1]; [6]
  Liver: Liver changes, mean severity score: 2.3
  Liver: Mixed cell infiltration, mean severity score: 2.1
  Liver: Necrosis, mean severity score: 3.5
  Right Kidney: Mineralization, mean severity score: 1.0
  Right Kidney: Tubular basophilia, mean severity score: 1.5
  Right Kidney: Tubular changes, mean severity score: 2.0
[2]; 50 mg/kg
  Heart: Chronic inflammation, number of animals: 1
  Heart: Mineralization, number of animals: 1
  Heart: Chronic inflammation, mean severity score: 2.0
  Heart: Mineralization, mean severity score: 3.0
  Liver: Liver changes, mean severity score: 1.0
  Liver: Mixed cell infiltration, mean severity score: 1.8
  Right Kidney: Tubular changes, mean severity score: 1.0
  Liver: Liver changes, number of animals: 5
  Liver: Mixed cell infiltration, number of animals: 4
  Liver: No significan changes, number of animals: 0
  Right Kidney: No significant changes, number of animals: 1
  Right Kidney: Tubular basophilia, number of animals: 0
  Right Kidney: Tubular changes, number of animals: 5
  Heart: No significant changes, number of animals: 2**
[2]; 100 mg/kg
  Heart: Chronic inflammation, number of animals: 0
  Heart: Mineralization, number of animals: 1
  Heart: Mineralization, mean severity score: 2.0
  Liver: Liver changes, mean severity score: 1.8
  Liver: Mixed cell infiltration, mean severity score: 2.0
  Right Kidney: Tubular changes, mean severity score: 1.0
  Liver: Liver changes, number of animals: 6
  Liver: Mixed cell infiltration, number of animals: 4
  Liver: No significan changes, number of animals: 0
  Right Kidney: No significant changes, number of animals: 0
  Right Kidney: Tubular basophilia, number of animals: 0
  Right Kidney: Tubular changes, number of animals: 6
  Heart: No significant changes, number of animals: 3**
[2]; 100 mg/kg SC days 1, 4, 7, 10
  weight loss as % gain versus pre-dose: but not SEQ ID NO:42 provoked weight loss
[3]; three weeks
  fraction in monomer form: 54.01%
  fraction in tetramer form: 45.99%
[4]; [7]
  Normalized IL-6 Response (Percentage of Positive Control): 13%
[4]; [8]
  Normalized IL-6 Response (Percentage of Positive Control): 14%
[4]; [9]
  Normalized IL-6 Response (Percentage of Positive Control): 5%
[4]; Experiment # 4, Max Conc 4.0 uM
  Normalized IL-6 Response (Percentage of Positive Control): 9%
[4]; Experiment # 5, Max Conc 4.0 uM
  Normalized IL-6 Response (Percentage of Positive Control): 10%
[4]; Experiment # 6, Max Conc 4.0 uM
  Normalized IL-6 Response (Percentage of Positive Control): 6%
[4]; Experiment # 7, Max Conc 4.0 uM
  Normalized IL-6 Response (Percentage of Positive Control): 9%
[4]; Experiment # 8, Max Conc 2.0 uM
  Normalized IL-6 Response (Percentage of Positive Control): 8%
[4]; [10]
  Normalized IL-6 Response (Percentage of Positive Control): 6%
[4]; Experiment # 10, Max Conc 2.0 uM
  Normalized IL-6 Response (Percentage of Positive Control): 18%
[4]; Experiment # 11, Max Conc 2.0 uM
  Normalized IL-6 Response (Percentage of Positive Control): 10%
[4]; human B-cells with IRP alone, 48 hours, FIGS. 1A-B
  B-cell response as evidenced by IL-6 produced: did not induce any B-cell response
